Molecules are shown by their SMILES. Read-outs that look alike come from different tables or passages of the source.

The target in one experiment is T1, IKZF3 (Homo sapiens, UniProt Q96SW2+Q9UKT9).
T1 construct: MM1S cells were purchased from ATCC (cat. Number CRL-2974); host or cells: MM1S cells
Put plainly: Selectivity determination by Western blot assay in MM1S cells: IKZF3. It counts as cell-based. On the set-up: key: A represents no degradation observed at 30 μM; B represents trace degradation at 30 μM (below 20%); C represents weak degradation at 30 μM (below 50%); D represents degradation at 30 μM (>90%); E represents degradation at 3 μM (>90%); F represents degradation at 0.3 μM (>90%). The settings on record: MM1S cells, 0.3, 3 and 30 μM, 6 hours. As for the experimental part: (§1) MM1S cells were purchased from ATCC (cat. Number CRL-2974), sub-cultured in […] RPMI 1640 with 10% FBS, supplemented with Ix P/S and incubated at 37° C., […]. Compounds were stored as 10 mM DMSO stock. For the assay, MM1S cells (3 million cells/well) were plated in 6-well plates and incubated over night. Cells were treated with respective compounds using a serial dilution: 0.3 μM, 3 μM and 30 μM as well as a vehicle only (DMSO) control for 6 hours. Media with suspension cells was subsequently transferred to 15 mL conical tubes, wells rinsed twice with ice-cold PBS and merged with cell suspension in respective 15 mL conical tube. Cells were spinned down, supernatant aspirated, pellets resuspended in ice-cold PBS and transferred to microtubes. Cells were spinned down, supernatant aspirated and pellets resuspended in 120 μL RIPA lysis buffer supplemented with protease and phosphatase inhibitors. Cell lysates were incubated on ice for 20 minutes followed by centrifugation at >20,000×g for 5 min. Supernatants were transferred to fresh microtubes and stored at −80° C. Total protein concentration was determined using a BCA assay with a BSA standard curve and concentration of all samples was adjusted to 1 mg/mL. […] Chemiluminescence signals were then detected using a LAS-4000 system with default settings and signals quantified using Image Studio Lite software (version 5.2). […]
For orientation: Immunoblotting shows a protein as a band on a membrane.

The next experiment deals with T2, IKZF1 (Homo sapiens, UniProt Q13422+Q96SW2).
T2 construct: MM1S cells were purchased from ATCC (cat. Number CRL-2974); host or cells: MM1S cells
Put plainly: Selectivity determination by Western blot assay in MM1S cells: IKZF1. It counts as cell-based. On the set-up: key: A represents no degradation observed at 30 μM; B represents trace degradation at 30 μM (below 20%); C represents weak degradation at 30 μM (below 50%); D represents degradation at 30 μM (>90%); E represents degradation at 3 μM (>90%); F represents degradation at 0.3 μM (>90%). The settings on record: MM1S cells, 0.3, 3 and 30 μM, 6 hours. As to the method:
as §1

The next experiment deals with GSPT1 (Homo sapiens, UniProt P15170+Q96SW2). Put plainly: Selectivity determination by Western blot assay in MM1S cells: GSPT1. It counts as cell-based. The settings on record: MM1S cells, 0.3, 3 and 30 μM, 6 hours. Details: MM1S cells were purchased from ATCC (cat. Number CRL-2974); host or cells: MM1S cells. As for the experimental part: as §1
In experiment [1] the target is T3, Full length wild-type cereblon CRBN (Homo sapiens, UniProt Q96SW2).
T3 construct: Full length wild-type cereblon CRBN (80.0 nM, 10 μL) was incubated in assay buffer
As to the kind of experiment: Fluorescence polarization (FP) assay indicating cereblon binding. Summed up: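 CRBN (80.0 nM) preincubated 30 min at RT with compound (300–0.937 or 3000–9.3 nM, 12 points) in 20 mM HEPES pH 8.0, 150 NaCl, 0.5 mM TCEP, 0.05% Tween 20. Cy5-type thalidomide-linked probe added at 5 nM final; FP read after 12 h (ex 590/em 675 nm), normalized to DMSO, IC50 derived.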

The mark [2] stands for this setting: cereblon binding, CRBN 80.0 nM, probe 5 nM, FP read after 12 hours, read-out: rFP IC50.
[3] abbreviates: fluorescence polarization assay, read-out: IC50 value (cereblon binding).

T3 sequence (Q96SW2 whole entry): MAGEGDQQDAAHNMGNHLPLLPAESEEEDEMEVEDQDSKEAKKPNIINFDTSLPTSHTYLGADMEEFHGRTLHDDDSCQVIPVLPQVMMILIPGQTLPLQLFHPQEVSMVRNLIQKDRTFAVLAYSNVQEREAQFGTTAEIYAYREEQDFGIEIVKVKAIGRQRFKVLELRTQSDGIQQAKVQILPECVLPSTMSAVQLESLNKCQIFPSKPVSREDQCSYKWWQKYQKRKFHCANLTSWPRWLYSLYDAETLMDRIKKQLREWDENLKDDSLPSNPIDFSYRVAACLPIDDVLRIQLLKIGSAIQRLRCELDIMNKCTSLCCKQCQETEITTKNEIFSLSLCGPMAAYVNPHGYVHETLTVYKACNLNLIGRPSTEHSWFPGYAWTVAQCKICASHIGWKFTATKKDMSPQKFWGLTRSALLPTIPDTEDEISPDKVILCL
GSPT1, sequence (P15170 whole entry): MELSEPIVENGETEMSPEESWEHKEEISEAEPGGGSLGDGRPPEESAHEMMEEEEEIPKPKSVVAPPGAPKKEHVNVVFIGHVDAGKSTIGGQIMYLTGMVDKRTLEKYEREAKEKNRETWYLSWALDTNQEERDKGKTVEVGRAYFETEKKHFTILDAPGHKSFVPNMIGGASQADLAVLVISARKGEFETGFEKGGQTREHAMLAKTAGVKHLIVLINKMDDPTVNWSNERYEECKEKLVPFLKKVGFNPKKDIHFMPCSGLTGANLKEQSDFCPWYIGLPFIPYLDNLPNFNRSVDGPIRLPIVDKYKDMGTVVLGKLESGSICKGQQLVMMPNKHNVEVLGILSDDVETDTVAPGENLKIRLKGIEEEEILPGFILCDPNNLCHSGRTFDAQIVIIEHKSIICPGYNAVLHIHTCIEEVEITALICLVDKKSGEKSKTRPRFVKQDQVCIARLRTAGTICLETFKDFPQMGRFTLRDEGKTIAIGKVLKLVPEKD
GSPT1, sequence (Q96SW2 whole entry): as the sequence (Q96SW2 whole entry) above
GSPT1, sequence (Q16531 whole entry partner): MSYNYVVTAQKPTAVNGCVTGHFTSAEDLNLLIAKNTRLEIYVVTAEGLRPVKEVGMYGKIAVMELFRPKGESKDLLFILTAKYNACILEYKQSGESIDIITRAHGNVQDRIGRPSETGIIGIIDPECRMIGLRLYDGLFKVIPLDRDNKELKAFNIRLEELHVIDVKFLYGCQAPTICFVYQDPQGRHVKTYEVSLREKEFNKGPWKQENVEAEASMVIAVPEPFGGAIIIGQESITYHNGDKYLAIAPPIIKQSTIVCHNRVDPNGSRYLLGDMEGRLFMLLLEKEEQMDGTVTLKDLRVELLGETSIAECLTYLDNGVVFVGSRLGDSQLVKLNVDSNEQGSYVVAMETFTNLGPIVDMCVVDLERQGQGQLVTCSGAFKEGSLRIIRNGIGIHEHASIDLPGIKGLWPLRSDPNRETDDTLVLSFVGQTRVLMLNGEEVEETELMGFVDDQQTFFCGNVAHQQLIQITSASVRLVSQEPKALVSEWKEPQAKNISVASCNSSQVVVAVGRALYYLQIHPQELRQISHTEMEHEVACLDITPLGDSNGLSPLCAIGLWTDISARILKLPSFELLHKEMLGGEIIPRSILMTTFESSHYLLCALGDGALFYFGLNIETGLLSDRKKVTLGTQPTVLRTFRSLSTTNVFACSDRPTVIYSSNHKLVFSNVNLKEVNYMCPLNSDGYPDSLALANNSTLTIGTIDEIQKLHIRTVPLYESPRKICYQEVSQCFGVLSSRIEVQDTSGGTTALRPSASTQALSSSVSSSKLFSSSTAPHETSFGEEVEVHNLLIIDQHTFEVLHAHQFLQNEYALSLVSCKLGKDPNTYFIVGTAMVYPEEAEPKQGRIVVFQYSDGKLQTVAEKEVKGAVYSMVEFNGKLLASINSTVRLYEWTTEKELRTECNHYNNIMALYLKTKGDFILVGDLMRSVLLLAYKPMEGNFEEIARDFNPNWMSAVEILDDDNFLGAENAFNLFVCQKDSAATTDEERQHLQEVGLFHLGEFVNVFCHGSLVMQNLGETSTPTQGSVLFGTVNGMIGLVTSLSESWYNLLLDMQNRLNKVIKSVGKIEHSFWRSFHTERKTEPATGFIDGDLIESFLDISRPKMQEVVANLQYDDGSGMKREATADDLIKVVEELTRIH
T1 sequence (Q9UKT9 whole entry): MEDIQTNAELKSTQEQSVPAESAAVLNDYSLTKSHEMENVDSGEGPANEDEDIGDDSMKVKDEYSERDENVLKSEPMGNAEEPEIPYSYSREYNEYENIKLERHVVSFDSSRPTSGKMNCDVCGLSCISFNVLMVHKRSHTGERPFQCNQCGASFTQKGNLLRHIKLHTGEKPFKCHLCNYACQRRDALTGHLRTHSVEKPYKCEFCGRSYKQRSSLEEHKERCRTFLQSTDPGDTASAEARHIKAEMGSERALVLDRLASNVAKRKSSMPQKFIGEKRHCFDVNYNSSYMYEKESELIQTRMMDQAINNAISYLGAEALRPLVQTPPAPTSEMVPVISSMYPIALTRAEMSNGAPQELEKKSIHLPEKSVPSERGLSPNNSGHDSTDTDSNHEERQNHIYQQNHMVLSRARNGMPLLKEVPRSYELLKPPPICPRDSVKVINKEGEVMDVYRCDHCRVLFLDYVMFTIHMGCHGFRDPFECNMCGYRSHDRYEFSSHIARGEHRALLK
T1 sequence (Q96SW2 whole entry): as the sequence (Q96SW2 whole entry) above
T1 sequence (Q16531 whole entry partner): as the sequence (Q16531 whole entry partner) above
T2 sequence (Q13422 whole entry): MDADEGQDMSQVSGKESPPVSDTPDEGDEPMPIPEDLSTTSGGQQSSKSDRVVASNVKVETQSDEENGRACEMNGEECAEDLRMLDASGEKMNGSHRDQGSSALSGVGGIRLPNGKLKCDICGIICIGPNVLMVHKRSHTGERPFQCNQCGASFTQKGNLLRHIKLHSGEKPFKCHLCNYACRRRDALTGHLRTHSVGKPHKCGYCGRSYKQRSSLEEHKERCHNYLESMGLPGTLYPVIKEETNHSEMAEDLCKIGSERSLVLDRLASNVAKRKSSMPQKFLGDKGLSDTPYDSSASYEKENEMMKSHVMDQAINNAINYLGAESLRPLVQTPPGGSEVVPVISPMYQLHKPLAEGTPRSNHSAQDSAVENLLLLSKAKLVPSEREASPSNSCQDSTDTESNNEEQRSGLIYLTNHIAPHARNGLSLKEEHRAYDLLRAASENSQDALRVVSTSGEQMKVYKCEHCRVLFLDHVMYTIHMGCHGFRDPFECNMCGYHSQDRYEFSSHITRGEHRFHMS
T2 sequence (Q96SW2 whole entry): as the sequence (Q96SW2 whole entry) above
T2 sequence (Q16531 whole entry partner): as the sequence (Q16531 whole entry partner) above

For the compound `Cc1ccc(NC(=O)CCc2ccc3c(c2)C(=O)N(C2CCC(=O)NC2=O)C3)cc1Cl` (stereo not shown) [Compound 1], the IKZF3 degradation code entry at IKZF3 is reported as “A”. In addition, the IKZF1 degradation code entry on IKZF1 is listed as “A”. In addition, the GSPT1 degradation code entry at GSPT1 was “F (F represents degradation at 0.3 μM (>90%))”. Besides, the IC50 (in general, the point on the concentration scale where inhibition reaches its midpoint) is at most 500 nM in experiment [1] (setting [2]) and under 1100 nM in experiment [1] (setting [3]).
Consider `Cc1c(Cl)cc(NC(=O)CCc2ccc3c(c2)C(=O)N(C2CCC(=O)NC2=O)C3)cc1CN1CCOCC1` (stereo not shown) [Compound 2], for which the IKZF3 degradation code entry on IKZF3 is on record as “C (C represents weak degradation at 30 μM (below 50%))”. For the same compound, at IKZF1, the IKZF1 degradation code entry is “A”. Also, the GSPT1 degradation code result on GSPT1 is “F (F represents degradation at 0.3 μM (>90%))”. For the same compound, the IC50 is at most 500 nM in experiment [1] (setting [2]) and under 1100 nM in experiment [1] (setting [3]).

Source of the values: patent publication US20240051937A1, “ISOINDOLINONE AMIDE COMPOUNDS USEFUL TO TREAT DISEASES ASSOCIATED WITH GSPT1” (Monte Rosa Therapeutics, Inc., priority 2021, published 2024).
